Measured values: EP1077981B1, “NOVEL CEPHALOSPORIN COMPOUNDS, PROCESSES FOR PREPARATION THEREOF AND ANTIMICROBIAL COMPOSITIONS CONTAINING THE SAME” (LG CHEMICAL LIMITED, priority 1998, dated 1999)
In brackets after ≈: the same amount, converted by molar mass. Read-outs that look alike come from different tables or passages of the source.

Assays:
Experiment in all cases: MIC against standard strains (agar dilution)
Type in all cases: cell-based
Escherichia coli 3190Y = details: Escherichia coli, 3190Y, 20 h
Procedure: (§1) Test example 1: Measurement of Minimum Inhibitory Concentration (MIC)
(§2) Specifically, test compounds were diluted by 2-fold dilution method and dispersed in Mueller-Hinton agar medium and then, 2µℓ of test strains were inoculated at a concentration of 10^7 cfu(colony forming unit)/mℓ on the medium and incubated for 20 hours at 37°C.

[1] = system: Serratia marcescens 1826E
Procedure: as §1, §2

Enterobacter cloacae P99 = system: Enterobacter cloacae P99
Procedure: as §1, §2

[2] = system: Enterobacter cloacae IND+VE 1194E
Procedure: as §1, §2

[3] = system: Citrobacter diversus 2046E; details: Citrobacter koseri
Procedure: as §1, §2

[4] = system: Staphylococcus aureus 6538p
Procedure: as §1, §2

[5] = system: Moraxella catarrhalis C2431
Procedure: as §1, §2

[6] = system: Klebsiella pneumoniae 2011E
Procedure: as §1, §2

[7] = system: Staphylococcus aureus giorgio
Procedure: as §1, §2

[8] = system: Pseudomonas aeruginosa 6065Y
Procedure: as §1, §2

[9] = system: Citrobacter freundii 8090
Procedure: as §1, §2

[10] = system: Escherichia coli TEM3 3455E; details: TEM33455E, 20 h
Procedure: as §1, §2

Escherichia coli 10536 = system: Escherichia coli 10536
Procedure: as §1, §2

[11] = system: Moraxella catarrhalis 25240
Procedure: as §1, §2

[12] = system: Escherichia coli TEM9 2639E; details: TEM92639E
Procedure: as §1, §2

[13] = system: Klebsiella aerogenes SHV-1 1976E; details: Klebsiella aerogenes, 20 h
Procedure: as §1, §2

Staphylococcus aureus 77 = system: Staphylococcus aureus 77
Procedure: as §1, §2

[14] = system: Enterococcus faecalis 29212
Procedure: as §1, §2

[15] = system: Morganella morganii 1375E
Procedure: as §1, §2

[16] = system: Pseudomonas aeruginosa 1912E
Procedure: as §1, §2

[17] = system: Staphylococcus epidermidi 887E
Procedure: as §1, §2

[18] = system: Staphylococcus aureus 241
Procedure: as §1, §2

Escherichia coli 851E = details: Escherichia coli, 851E, 20 h
Procedure: as §1, §2

[19] = system: Escherichia coli TEM1 1193E; details: TEM11193E, 20 h
Procedure: as §1, §2

[20] = system: Acinetobacter calcoaceticu 15473
Procedure: as §1, §2

Proteus vulgaris 6059 = system: Proteus vulgaris 6059
Procedure: as §1, §2

[21] = system: Salmonella typhimurium 14028; details: Salmonella enterica
Procedure: as §1, §2

[22] = system: Klebsiella aerogenes K1+ 1082E
Procedure: as §1, §2

[23] = Serratia marcescens, 1826E, 20 h
[24] = Enterobacter cloacae, P99, 20 h
[25] = Staphylococcus aureus, 6538P, 20 h
[26] = Moraxella catarrhalis, C2431, 20 h
[27] = Klebsiella pneumoniae, 2011E, 20 h
[28] = Pseudomonas aeruginosa, 6065Y, 20 h
[29] = Citrobacter freundii, 8090, 20 h
[30] = Moraxella catarrhalis, 25240, 20 h
[31] = Staphylococcus aureus, 77, 20 h
[32] = Enterococcus faecalis, 29212, 20 h
[33] = Morganella morganii, 1375E, 20 h
[34] = Pseudomonas aeruginosa, 1912E, 20 h
[35] = Staphylococcus aureus, 241, 20 h

For CCO/N=C(\C(=O)NC1C(=O)N2C(C(=O)O)=C(Sc3cc(N)nc(N)n3)CSC12)c1csc(N)n1 (stereo not drawn) [compound 27, 7-[(Z)-2-(2-amino-thiazol-4-yl)-2-ethoxyiminoacetylamino]-3-(2,6-diamino-pyrimidin-4-ylsulfanyl)-8-oxo-5-thia-1-aza-bi cyclo[4,2,0]oct-2-ene-2-carboxylic acid], the MIC (Escherichia coli 3190Y) was 0.13 µg/mL (≈ 0.242 µM), the MIC ([1]; Serratia marcescens 1826E, Mueller-Hinton agar, 20 hours at 37°C, read-out: MIC) was 4 µg/mL (≈ 7.44 µM) and the MIC (Enterobacter cloacae P99; Enterobacter cloacae P99, Mueller-Hinton agar, 20 hours at 37°C, read-out: MIC) was over 64 µg/mL. The MIC ([2]; Enterobacter cloacae IND+VE 1194E, Mueller-Hinton agar, 20 hours at 37°C, read-out: MIC) was over 64 µg/mL, the MIC ([3]; Citrobacter diversus 2046E, Mueller-Hinton agar, 20 hours at 37°C, read-out: MIC) was 64 µg/mL (≈ 119 µM) and the MIC ([4]; Staphylococcus aureus 6538p, Mueller-Hinton agar, 20 hours at 37°C, read-out: MIC) was 2 µg/mL (≈ 3.72 µM). It also gave an MIC ([5]; Moraxella catarrhalis C2431, Mueller-Hinton agar, 20 hours at 37°C, read-out: MIC) of at most 0.008 µg/mL, an MIC ([6]; Klebsiella pneumoniae 2011E, Mueller-Hinton agar, 20 hours at 37°C, read-out: MIC) of 2 µg/mL (≈ 3.72 µM) and an MIC ([7]; Staphylococcus aureus giorgio, Mueller-Hinton agar, 20 hours at 37°C, read-out: MIC) of 0.5 µg/mL (≈ 0.93 µM). It also gave an MIC ([8]; Pseudomonas aeruginosa 6065Y, Mueller-Hinton agar, 20 hours at 37°C, read-out: MIC) of 64 µg/mL (≈ 119 µM), an MIC ([9]; Citrobacter freundii 8090, Mueller-Hinton agar, 20 hours at 37°C, read-out: MIC) of 2 µg/mL (≈ 3.72 µM) and an MIC [10] of 16 µg/mL (≈ 29.8 µM). The MIC (Escherichia coli 10536; Escherichia coli 10536, Mueller-Hinton agar, 20 hours at 37°C, read-out: MIC) was 0.25 µg/mL (≈ 0.465 µM), the MIC ([11]; Moraxella catarrhalis 25240, Mueller-Hinton agar, 20 hours at 37°C, read-out: MIC) was at most 0.008 µg/mL and the MIC ([12]; Escherichia coli TEM9 2639E, Mueller-Hinton agar, 20 hours at 37°C, read-out: MIC) was 64 µg/mL (≈ 119 µM). The MIC [13] was 0.5 µg/mL (≈ 0.93 µM), the MIC (Staphylococcus aureus 77; Staphylococcus aureus 77, Mueller-Hinton agar, 20 hours at 37°C, read-out: MIC) was 4 µg/mL (≈ 7.44 µM) and the MIC ([14]; Enterococcus faecalis 29212, Mueller-Hinton agar, 20 hours at 37°C, read-out: MIC) was 64 µg/mL (≈ 119 µM). It also gave an MIC ([15]; Morganella morganii 1375E, Mueller-Hinton agar, 20 hours at 37°C, read-out: MIC) of 0.25 µg/mL (≈ 0.465 µM), an MIC ([16]; Pseudomonas aeruginosa 1912E, Mueller-Hinton agar, 20 hours at 37°C, read-out: MIC) of 8 µg/mL (≈ 14.9 µM) and an MIC ([17]; Staphylococcus epidermidi 887E, Mueller-Hinton agar, 20 hours at 37°C, read-out: MIC) of 8 µg/mL (≈ 14.9 µM). The MIC ([18]; Staphylococcus aureus 241, Mueller-Hinton agar, 20 hours at 37°C, read-out: MIC) was 8 µg/mL (≈ 14.9 µM), the MIC (Escherichia coli 851E) was 0.25 µg/mL (≈ 0.465 µM) and the MIC [19] was 0.5 µg/mL (≈ 0.93 µM). It also gave an MIC ([20]; Acinetobacter calcoaceticu 15473, Mueller-Hinton agar, 20 hours at 37°C, read-out: MIC) of 32 µg/mL (≈ 59.5 µM), an MIC (Proteus vulgaris 6059; Proteus vulgaris 6059, Mueller-Hinton agar, 20 hours at 37°C, read-out: MIC) of 0.063 µg/mL (≈ 0.117 µM) and an MIC ([21]; Salmonella typhimurium 14028, Mueller-Hinton agar, 20 hours at 37°C, read-out: MIC) of 1 µg/mL (≈ 1.86 µM). For the same compound, the MIC ([22]; Klebsiella aerogenes K1+ 1082E, Mueller-Hinton agar, 20 hours at 37°C, read-out: MIC) was over 64 µg/mL.

In the case of C#CCO/N=C(\C(=O)NC1C(=O)N2C(C(=O)O)=C(Sc3cc(N)nc(N)n3)CSC12)c1csc(N)n1 (stereo not drawn) [compound 28, 7-[(Z)-2-(2-amino-thiazol-4-yl)-2-propyn-2-yioxyimino-acetylamino]-3-(2,6-diamino-pyrimidin-4-ylsulfanyl)-8-oxo-5-thia1-aza-bicyclo[4,2,0]oct-2-ene-2-carboxylic acid], the MIC (Escherichia coli 3190Y) was 0.13 µg/mL (≈ 0.237 µM), the MIC [1, 23] was 8 µg/mL (≈ 14.6 µM) and the MIC (Enterobacter cloacae P99; [24]) was over 64 µg/mL. It also gave an MIC ([2]; Enterobacter cloacae, 20 h) of over 64 µg/mL, an MIC ([3]; 2046E, 20 h) of over 64 µg/mL and an MIC [4, 25] of 1 µg/mL (≈ 1.83 µM). For the same compound, the MIC [5, 26] was 0.016 µg/mL (≈ 0.0292 µM), the MIC [6, 27] was 2 µg/mL (≈ 3.65 µM) and the MIC ([7]; Staphylococcus aureus, 20 h) was 0.5 µg/mL (≈ 0.913 µM). For the same compound, the MIC [8, 28] was 64 µg/mL (≈ 117 µM), the MIC [9, 29] was 2 µg/mL (≈ 3.65 µM) and the MIC [10] was 16 µg/mL (≈ 29.2 µM). For the same compound, the MIC (Escherichia coli 10536; Escherichia coli, 10536, 20 h) was 0.25 µg/mL (≈ 0.457 µM), the MIC [11, 30] was 0.016 µg/mL (≈ 0.0292 µM) and the MIC ([12]; Escherichia coli, 20 h) was 64 µg/mL (≈ 117 µM). For the same compound, the MIC [13] was 0.5 µg/mL (≈ 0.913 µM), the MIC (Staphylococcus aureus 77; [31]) was 4 µg/mL (≈ 7.3 µM) and the MIC [14, 32] was 32 µg/mL (≈ 58.4 µM). The MIC [15, 33] was 0.25 µg/mL (≈ 0.457 µM), the MIC [16, 34] was 32 µg/mL (≈ 58.4 µM) and the MIC ([17]; Staphylococcus, 887E, 20 h) was 8 µg/mL (≈ 14.6 µM). It also gave an MIC [18, 35] of 8 µg/mL (≈ 14.6 µM), an MIC (Escherichia coli 851E) of 0.25 µg/mL (≈ 0.457 µM) and an MIC [19] of 0.5 µg/mL (≈ 0.913 µM). For the same compound, the MIC ([20]; Acinetobacter, 15473, 20 h) was 32 µg/mL (≈ 58.4 µM), the MIC (Proteus vulgaris 6059; Proteus vulgaris, 6059, 20 h) was 0.031 µg/mL (≈ 0.0566 µM) and the MIC ([21]; TYPHIMURIUM, 20 h) was 1 µg/mL (≈ 1.83 µM). The MIC ([22]; Klebsiella aerogenes, 20 h) was over 64 µg/mL.

CCO/N=C(\C(=O)NC1C(=O)N2C(C(=O)O)=C(Sc3cc(N)nc(N)n3)CSC12)c1nsc(N)n1 (stereo not drawn) [compound 29] showed an MIC (Escherichia coli 3190Y) of 0.063 µg/mL (≈ 0.117 µM), an MIC [1, 23] of 4 µg/mL (≈ 7.43 µM) and an MIC (Enterobacter cloacae P99; [24]) of over 64 µg/mL. The MIC ([2]; Enterobacter cloacae, 20 h) was over 64 µg/mL, the MIC ([3]; 2046E, 20 h) was over 64 µg/mL and the MIC [4, 25] was 2 µg/mL (≈ 3.71 µM). It also gave an MIC [5, 26] of at most 0.008 µg/mL, an MIC [6, 27] of 2 µg/mL (≈ 3.71 µM) and an MIC ([7]; Staphylococcus aureus, 20 h) of 1 µg/mL (≈ 1.86 µM). For the same compound, the MIC [8, 28] was over 64 µg/mL, the MIC [9, 29] was 2 µg/mL (≈ 3.71 µM) and the MIC [10] was 32 µg/mL (≈ 59.4 µM). The MIC (Escherichia coli 10536; Escherichia coli, 10536, 20 h) was 0.13 µg/mL (≈ 0.241 µM), the MIC [11, 30] was at most 0.008 µg/mL and the MIC ([12]; Escherichia coli, 20 h) was 64 µg/mL (≈ 119 µM). The MIC [13] was 1 µg/mL (≈ 1.86 µM), the MIC (Staphylococcus aureus 77; [31]) was 4 µg/mL (≈ 7.43 µM) and the MIC [14, 32] was 64 µg/mL (≈ 119 µM). It also gave an MIC [15, 33] of 0.25 µg/mL (≈ 0.464 µM), an MIC [16, 34] of 8 µg/mL (≈ 14.9 µM) and an MIC ([17]; Staphylococcus, 887E, 20 h) of 8 µg/mL (≈ 14.9 µM). It also gave an MIC [18, 35] of 8 µg/mL (≈ 14.9 µM), an MIC (Escherichia coli 851E) of 0.25 µg/mL (≈ 0.464 µM) and an MIC [19] of 1 µg/mL (≈ 1.86 µM). The MIC ([20]; Acinetobacter, 15473, 20 h) was 32 µg/mL (≈ 59.4 µM), the MIC (Proteus vulgaris 6059; Proteus vulgaris, 6059, 20 h) was 0.063 µg/mL (≈ 0.117 µM) and the MIC ([21]; TYPHIMURIUM, 20 h) was 1 µg/mL (≈ 1.86 µM). The MIC ([22]; Klebsiella aerogenes, 20 h) was over 64 µg/mL.
